Common to all, as to type: in vivo, mouse
One assay concerns microglia. In words: Microglia depletion verified by Iba-1 immunohistochemistry. The settings on record: 1200 mg/kg in AIN-76A chow ad libitum; cortex and hippocampus; FIG. 15E-F. How it is done: (§1) In order to acutely deplete the gut microbiota, 15-16 months old SPF males were treated via oral gavage with a mixture of antibiotics (ABX), containing Cefoxitin (Santa Cruz Biotechnology), Gentamicin (Sigma-Aldrich) Metronidazole (Sigma-Aldrich), and Vancomycin (Hikma-pharma), each 10 mg/kg in sterile 1×PBS, for three consecutive days. On the fourth day, the mice were treated with one dose of Clindamycin hydrochloride (33.3 mg/kg) (Sigma-Aldrich). Fecal microbiota transplantations (FMTs) were started 24 h later. To deplete csf1-dependent cells in vivo, including microglia, mice were provided with CSF1R-inhibitor PLX5622 (Plexxicon Inc.) mixed into AIN-76A standard chow at 1200 mg/kg (Research Diets Inc.) ad libitum. Respective controls received AIN-76A standard chow. Mice were injected with 5 mg/kg δ-valerobetaine (MCAT, Germany) 1 h before behavioral testing.
Mice were lethally anesthetized with ketamine (100 mg/kg bodyweight) and xylazine (10 mg/kg body weight) followed by perfusion with 1×PBS through the left heart chamber. For histology, the brains were kept overnight in 4% PFA. The brains were then dehydrated in 30% sucrose and embedded in Tissue-Tek O.C.T.™ compound (Sakura Finetek Germany GmbH). […] Fluorescence imaging was performed with BZ-9000 Biorevo microscope (Keyence). Iba-1+DAPI+ cells were quantified using ImageJ (v. 1.53c).

Assay [1] deals with C57BL/6J mice. In words: Novel object recognition (NOR) test (recognition memory). As to conditions: old mice and old mice subjected to FMT from young donors; PLX5622 chow versus respective control mice; FIG. 15C-D. How it is done: as §1
(§2) For microbiota depletion studies, SPF mice were treated with 1 mg/ml of ampicillin (Auromedics), neomycin sulfate (Fisher), streptomycin (Sigma) and 0.5 mg/ml of vancomycin (Sagent) in the drinking water for 4-5 weeks (Khosravi et al., 2014). These mice were recolonized via FMT, which was achieved by oral gavage of a faecal slurry. Recipient mice had the food removed from the cage for 2 h prior to FMT. The faecal slurry was obtained by pooling faecal pellets from 8-14 donor mice. The pellets were weighed and resuspended by vortexing for 1 min in 1 mL PBS per 300 mg of faeces. After pelleting larger particles by centrifugation at 500×g for 5 min, the supernatant was collected for FMT. Each recipient mouse received 150 μl of faecal slurry by oral gavage. The remaining slurry was stored at −80° C. for 16S rRNA sequencing. Following FMT, the cages of recipient mice were replenished with dirty bedding and fresh faecal pellets from donor mice once and twice a week, respectively. Faecal pellets for 16S rRNA sequencing were collected the day before FMT and at the end of the experiment and were stored at −80° C. for DNA extraction. For re-colonization of ABX treated mice, FMTs from 8 weeks old or 15-16 months old males were undergone. Fresh fecal pellets are collected under a sterile hood and directly thoroughly homogenized in 0.1% L-Cysteine hydrochloride monohydrate in 1×PBS in order to maintain anaerobic microbes. The homogenates were spun down for 1 min, 200 g at 4° C. and the turbid supernatant was used to orally and rectally gavage the recipient mice. The FMT was performed twice 72 h apart.
(§3) NNN-trimethyl-5-aminovalerate was dissolved in 0.9% NaCl and administered i.p. at a dose of 200 mg/kg in a volume of 10 ml/kg. As control the vehicle NaCl was injected.
(§4) Mice were tested 40 min after drug- or vehicle injection or 4 weeks after FMT. We first performed the training run for the Novel-object recognition test, followed by the T maze test and then 6 h after the training session mice were tested in the Novel object recognition test. Spatial working memory was tested using the continuous spontaneous alternation task in a T-maze as described previously (Spowart-Manning, L. et al). Briefly, animals were set into the base of a T-maze and allowed to explore a randomly assigned T-maze arm until it returned to the base arm. Subsequently, the blocked arm was opened, and the animal was allowed to explore the complete maze. Once one arm of the T-maze was entered, the other arm was blocked until the animal returned to the base arm. Then, the exit of the base arm was blocked for 5 s and the animal was allowed to explore the maze again. The experiment was stopped after 14 free choice arm entries. Arm entries were scored as alternations if an animal chose the opposing arm compared to the arm visited immediately prior to the scored instance. The Novel Object Recognition (NOR) task was applied to evaluate recognition memory as published previously (Antunes, M. & Biala, G. et al). During the habituation phase, each mouse was allowed to explore two similar objects within a total exploration time of 20 s. […]

Assay [2] deals with C57BL/6J mice. Description: T-maze spontaneous alternation test (spatial working memory). The settings on record: old mice and old mice subjected to FMT from young donors; PLX5622 chow versus respective control mice; FIG. 15B. How it is done: as §1, §2, §3, §4

SMILES strings stand for the structures.

For the molecule `COc1ncc(F)cc1CNc1ccc(Cc2c[nH]c3ncc(C)cc23)c(F)n1` [PLX5622, reference compound], the “microglia in brain tissue (Iba-1 immunohistochemistry)” value in the assay on microglia is listed as “almost complete absence”. Also, the “NOR performance of mice lacking microglia” value in the assay with C57BL/6J mice [1] is listed as “unchanged”. In addition, the “T maze performance of mice lacking microglia” value in the assay with C57BL/6J mice [2] is “unchanged”.

The values above are taken from patent US20260276656A1, “GUT MICROBIOTA-RELATED METHODS FOR TREATING DEMENTIA AND AGE-DEPENDENT COGNITIVE DECLINE” (Albert-Ludwigs-Universitat Freiburg, priority 2019, published 2026).
